The supplement of paper PMC6045584
± gives the standard deviation of the averaged measurements.

How the values were obtained:
[1] = compound: CN(C)CC[C@H](CSc1ccccc1)Nc1ccc(S(=O)(=O)NC(=O)c2ccc(N3CCN(Cc4ccccc4-c4ccc(Cl)cc4)CC3)cc2)cc1[N+](=O)[O-] [ABT-737]; experiment: surviving fraction relative to DMSO-only wells; higher = less growth inhibition; details: exposure time: 5 days
Procedure, shortened: (§1)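 Tumour cell lines were grown to log phase and seeded at 250–500 cells per well in 384-well plates. They were exposed continuously to inhibitors at 0.5, 1, 5, 10, 50, 100, 500 and 1000 nM for five days, beginning 24 hours after seeding. Surviving fraction is CellTiter-Glo luminescence normalised to the median of DMSO-only wells.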

[2] = compound: C=CCNC1=C2C[C@@H](C)C[C@H](OC)[C@H](O)[C@@H](C)/C=C(\C)[C@H](OC(N)=O)[C@@H](OC)/C=C\C=C(/C)C(=O)NC(=CC1=O)C2=O [17-AAG]; experiment: as above; details: exposure time: 5 days
Procedure, shortened: as §1

Test System CCK81 LARGE INTESTINE has a surviving fraction ([1]; 0.5 nM) of 0.869 ± 0.15, a surviving fraction ([1]; 1 nM) of 0.887 ± 0.025 and a surviving fraction ([1]; 5 nM) of 0.83 ± 0.11. The surviving fraction ([1]; 10 nM) was 0.847 ± 0.077, the surviving fraction ([1]; 50 nM) was 0.859 ± 0.11 and the surviving fraction ([1]; 100 nM) was 0.724 ± 0.13. The surviving fraction ([1]; 500 nM) was 0.678 ± 0.071 and the surviving fraction ([1]; 1000 nM) was 0.695 ± 0.053.
With G292 BONE the surviving fraction ([2]; 0.5 nM) was 0.928 ± 0.035, the surviving fraction ([2]; 1 nM) was 0.934 ± 0.031 and the surviving fraction ([2]; 5 nM) was 0.956 ± 0.052. It also gave a surviving fraction ([2]; 10 nM) of 0.792 ± 0.018, a surviving fraction ([2]; 50 nM) of 0.295 ± 0.018 and a surviving fraction ([2]; 100 nM) of 0.266 ± 0.0069. For the same test system, the surviving fraction ([2]; 500 nM) was 0.0898 ± 0.01, the surviving fraction ([2]; 1000 nM) was 0.087 ± 0.004 and the surviving fraction ([1]; 0.5 nM) was 1.06 ± 0.043. For the same test system, the surviving fraction ([1]; 1 nM) was 1.03 ± 0.021, the surviving fraction ([1]; 5 nM) was 1.08 ± 0.014 and the surviving fraction ([1]; 10 nM) was 1.02 ± 0.012. The surviving fraction ([1]; 50 nM) was 1.07 ± 0.022, the surviving fraction ([1]; 100 nM) was 1.06 ± 0.024 and the surviving fraction ([1]; 500 nM) was 1.02 ± 0.019. For the same test system, the surviving fraction ([1]; 1000 nM) was 0.904 ± 0.027.
HCC38 BREAST gave a surviving fraction ([2]; 0.5 nM) of 0.802 ± 0.19, a surviving fraction ([2]; 1 nM) of 0.906 ± 0.26 and a surviving fraction ([2]; 5 nM) of 0.293 ± 0.082. The surviving fraction ([2]; 10 nM) was 0.185 ± 0.067, the surviving fraction ([2]; 50 nM) was 0.0753 ± 0.022 and the surviving fraction ([2]; 100 nM) was 0.0727 ± 0.0085. For the same test system, the surviving fraction ([2]; 500 nM) was 0.059 ± 0.0092, the surviving fraction ([2]; 1000 nM) was 0.0613 ± 0.0025 and the surviving fraction ([1]; 0.5 nM) was 1.22 ± 0.037. The surviving fraction ([1]; 1 nM) was 1.23 ± 0.086, the surviving fraction ([1]; 5 nM) was 1.3 ± 0.23 and the surviving fraction ([1]; 10 nM) was 1.31 ± 0.049. The surviving fraction ([1]; 50 nM) was 1.21 ± 0.11, the surviving fraction ([1]; 100 nM) was 1.26 ± 0.17 and the surviving fraction ([1]; 500 nM) was 0.873 ± 0.12. The surviving fraction ([1]; 1000 nM) was 0.714 ± 0.068.
In the case of HCC70 BREAST, the surviving fraction ([2]; 0.5 nM) is reported as 1.01 ± 0.09, the surviving fraction ([2]; 1 nM) is reported as 0.971 ± 0.066 and the surviving fraction ([2]; 5 nM) is reported as 1.01 ± 0.046. The surviving fraction ([2]; 10 nM) was 0.804 ± 0.0083, the surviving fraction ([2]; 50 nM) was 0.091 ± 0.017 and the surviving fraction ([2]; 100 nM) was 0.0907 ± 0.012. For the same test system, the surviving fraction ([2]; 500 nM) was 0.073 ± 0.017, the surviving fraction ([2]; 1000 nM) was 0.0667 ± 0.0091 and the surviving fraction ([1]; 0.5 nM) was 1.07 ± 0.044. For the same test system, the surviving fraction ([1]; 1 nM) was 1.11 ± 0.08, the surviving fraction ([1]; 5 nM) was 1.1 ± 0.065 and the surviving fraction ([1]; 10 nM) was 1.11 ± 0.051. It also gave a surviving fraction ([1]; 50 nM) of 1.06 ± 0.092, a surviving fraction ([1]; 100 nM) of 1.03 ± 0.078 and a surviving fraction ([1]; 500 nM) of 1 ± 0.048. For the same test system, the surviving fraction ([1]; 1000 nM) was 0.978 ± 0.032.
HMLE3 BREAST gave a surviving fraction ([2]; 0.5 nM) of 0.875 ± 0.029, a surviving fraction ([2]; 1 nM) of 0.889 ± 0.079 and a surviving fraction ([2]; 5 nM) of 0.973 ± 0.037. For the same test system, the surviving fraction ([2]; 10 nM) was 0.925 ± 0.062, the surviving fraction ([2]; 50 nM) was 0.0453 ± 0.0025 and the surviving fraction ([2]; 100 nM) was 0.0247 ± 0.0011. For the same test system, the surviving fraction ([2]; 500 nM) was 0.021 ± 0.002, the surviving fraction ([2]; 1000 nM) was 0.024 ± 0.001 and the surviving fraction ([1]; 0.5 nM) was 1.06 ± 0.073. The surviving fraction ([1]; 1 nM) was 1.06 ± 0.049, the surviving fraction ([1]; 5 nM) was 1.15 ± 0.013 and the surviving fraction ([1]; 10 nM) was 1.17 ± 0.11. It also gave a surviving fraction ([1]; 50 nM) of 1.1 ± 0.13, a surviving fraction ([1]; 100 nM) of 1.17 ± 0.12 and a surviving fraction ([1]; 500 nM) of 1.17 ± 0.13. It also gave a surviving fraction ([1]; 1000 nM) of 1.22 ± 0.1.
With HMT3552 BREAST the surviving fraction ([2]; 0.5 nM) was 0.913, the surviving fraction ([2]; 1 nM) was 0.915 and the surviving fraction ([2]; 5 nM) was 1.15. The surviving fraction ([2]; 10 nM) was 0.904, the surviving fraction ([2]; 50 nM) was 0.087 and the surviving fraction ([2]; 100 nM) was 0.064. The surviving fraction ([2]; 500 nM) was 0.056, the surviving fraction ([2]; 1000 nM) was 0.062 and the surviving fraction ([1]; 0.5 nM) was 1.01 ± 0.084. It also gave a surviving fraction ([1]; 1 nM) of 1.02 ± 0.033, a surviving fraction ([1]; 5 nM) of 1.04 ± 0.035 and a surviving fraction ([1]; 10 nM) of 0.979 ± 0.082. For the same test system, the surviving fraction ([1]; 50 nM) was 1.1 ± 0.036, the surviving fraction ([1]; 100 nM) was 1.23 ± 0.038 and the surviving fraction ([1]; 500 nM) was 1.03 ± 0.06. It also gave a surviving fraction ([1]; 1000 nM) of 1.17 ± 0.03.
HS578T BREAST was tested, and the surviving fraction ([2]; 0.5 nM) was 0.904 ± 0.057, the surviving fraction ([2]; 1 nM) was 0.928 ± 0.033 and the surviving fraction ([2]; 5 nM) was 0.525 ± 0.1. The surviving fraction ([2]; 10 nM) was 0.409 ± 0.051, the surviving fraction ([2]; 50 nM) was 0.281 ± 0.049 and the surviving fraction ([2]; 100 nM) was 0.234 ± 0.022. The surviving fraction ([2]; 500 nM) was 0.213 ± 0.026, the surviving fraction ([2]; 1000 nM) was 0.222 ± 0.026 and the surviving fraction ([1]; 0.5 nM) was 1.08 ± 0.11. The surviving fraction ([1]; 1 nM) was 1.37 ± 0.23, the surviving fraction ([1]; 5 nM) was 1.26 ± 0.15 and the surviving fraction ([1]; 10 nM) was 1.24 ± 0.11. The surviving fraction ([1]; 50 nM) was 1.18 ± 0.073, the surviving fraction ([1]; 100 nM) was 1.15 ± 0.15 and the surviving fraction ([1]; 500 nM) was 0.975 ± 0.021. For the same test system, the surviving fraction ([1]; 1000 nM) was 0.955 ± 0.059.
